Test results taken from ChEMBL document CHEMBL4507257, “Data for DCP probe ABT-100” (2021).

Key:
[1] = target: cGMP-dependent protein kinase 2 (Homo sapiens) (UniProt Q13237); details: Compound concentration 1000.0 nM
[2] = target: Serine/threonine-protein kinase Nek10 (Homo sapiens) (UniProt Q6ZWH5); details: Compound concentration 1000.0 nM
[3] = target: Cyclin-dependent kinase 2 homolog (Plasmodium falciparum (isolate 3D7)) (UniProt P61075); details: Compound concentration 1000.0 nM
[4] = target: Testis-specific serine/threonine-protein kinase 3 (Homo sapiens) (UniProt Q96PN8); details: Compound concentration 1000.0 nM
[5] = target: Focal adhesion kinase 1 (Homo sapiens) (UniProt Q05397); details: Compound concentration 1000.0 nM
[6] = target: Ribosomal protein S6 kinase alpha-1 (Homo sapiens) (UniProt Q15418); details: Compound concentration 1000.0 nM
[7] = target: Cyclin-dependent kinase 8 (Homo sapiens) (UniProt P49336); details: Compound concentration 1000.0 nM
[8] = target: Maternal embryonic leucine zipper kinase (Homo sapiens) (UniProt Q14680); details: Compound concentration 1000.0 nM
[9] = target: Non-receptor tyrosine-protein kinase TYK2 (Homo sapiens) (UniProt P29597); details: Compound concentration 1000.0 nM
[10] = target: Mitogen-activated protein kinase kinase kinase 6 (Homo sapiens) (UniProt O95382); details: Compound concentration 1000.0 nM
[11] = target: Ephrin type-B receptor 4 (Homo sapiens) (UniProt P54760); details: Compound concentration 1000.0 nM
[12] = target: Homeodomain-interacting protein kinase 4 (Homo sapiens) (UniProt Q8NE63); details: Compound concentration 1000.0 nM
[13] = target: Activin receptor type-1-like (Homo sapiens) (UniProt P37023); details: Compound concentration 1000.0 nM
[14] = target: Serine/threonine-protein kinase 10 (Homo sapiens) (UniProt O94804); details: Compound concentration 1000.0 nM
[15] = target: Serine/threonine-protein kinase BRSK1 (Homo sapiens) (UniProt Q8TDC3); details: Compound concentration 1000.0 nM
[16] = target: T1, 5-hydroxytryptamine receptor 2C (Homo sapiens) (UniProt P28335); details: Compound concentration 10.0 uM
T1 sequence (whole entry): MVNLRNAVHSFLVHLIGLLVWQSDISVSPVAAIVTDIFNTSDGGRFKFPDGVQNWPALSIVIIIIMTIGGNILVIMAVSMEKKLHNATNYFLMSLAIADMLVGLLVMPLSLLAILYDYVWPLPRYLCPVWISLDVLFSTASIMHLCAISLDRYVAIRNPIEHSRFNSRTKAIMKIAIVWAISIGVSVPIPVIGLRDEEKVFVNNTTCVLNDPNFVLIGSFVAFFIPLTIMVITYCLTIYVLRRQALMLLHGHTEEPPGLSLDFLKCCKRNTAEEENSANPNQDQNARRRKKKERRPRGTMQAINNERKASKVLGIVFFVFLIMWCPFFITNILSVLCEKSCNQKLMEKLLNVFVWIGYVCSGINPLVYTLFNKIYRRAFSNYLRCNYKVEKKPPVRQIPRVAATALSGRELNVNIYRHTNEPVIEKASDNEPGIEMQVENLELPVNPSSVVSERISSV

[17] = target: GABA-A receptor; anion channel (Rattus norvegicus) (UniProt O09028+P15431+P18506+P18508+P19969+P20236+P23574+P23576+P28471+P28473+P30191+P62813+P63079+P63138+Q91ZM7+Q9ES14); details: Compound concentration 10.0 uM
[18] = target: T2, Muscarinic acetylcholine receptor M1 (Homo sapiens) (UniProt P11229); details: Compound concentration 10.0 uM
T2 sequence (whole entry): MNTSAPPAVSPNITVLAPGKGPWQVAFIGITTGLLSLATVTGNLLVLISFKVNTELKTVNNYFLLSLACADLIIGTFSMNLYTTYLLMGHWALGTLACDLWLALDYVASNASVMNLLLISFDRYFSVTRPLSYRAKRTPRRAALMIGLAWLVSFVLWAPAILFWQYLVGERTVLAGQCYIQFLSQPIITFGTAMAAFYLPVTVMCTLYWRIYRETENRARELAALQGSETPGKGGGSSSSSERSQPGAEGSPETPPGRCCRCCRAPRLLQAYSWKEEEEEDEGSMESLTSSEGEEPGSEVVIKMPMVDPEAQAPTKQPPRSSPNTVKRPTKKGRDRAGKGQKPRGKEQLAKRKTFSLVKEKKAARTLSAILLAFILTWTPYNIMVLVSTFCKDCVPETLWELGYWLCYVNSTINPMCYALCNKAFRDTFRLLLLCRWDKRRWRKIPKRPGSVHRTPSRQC

[19] = target: Serine/threonine-protein kinase PLK2 (Homo sapiens) (UniProt Q9NYY3); details: Compound concentration 1000.0 nM
[20] = target: Serine/threonine-protein kinase 17B (Homo sapiens) (UniProt O94768); details: Compound concentration 1000.0 nM
[21] = target: Serine/threonine-protein kinase Sgk1 (Homo sapiens) (UniProt O00141); details: Compound concentration 1000.0 nM
[22] = tested on: eIF-2-alpha kinase GCN2 (Homo sapiens), Q9P2K8 [S808G]; details: Compound concentration 1000.0 nM
[23] = target: Serine/threonine-protein kinase ULK3 (Homo sapiens) (UniProt Q6PHR2); details: Compound concentration 1000.0 nM
[24] = target: Mitogen-activated protein kinase kinase kinase 3 (Homo sapiens) (UniProt Q99759); details: Compound concentration 1000.0 nM
[25] = target: Calcium/calmodulin-dependent protein kinase type II subunit gamma (Homo sapiens) (UniProt Q13555); details: Compound concentration 1000.0 nM
[26] = target: Phosphatidylinositol 4,5-bisphosphate 3-kinase catalytic subunit delta isoform (Homo sapiens) (UniProt O00329); details: Compound concentration 1000.0 nM
[27] = target: Homeodomain-interacting protein kinase 3 (Homo sapiens) (UniProt Q9H422); details: Compound concentration 1000.0 nM
[28] = target: Ribosomal protein S6 kinase alpha-6 (Homo sapiens) (UniProt Q9UK32); details: Compound concentration 1000.0 nM
[29] = target: Myosin light chain kinase (Homo sapiens) (UniProt Q32MK0); details: Compound concentration 1000.0 nM
[30] = target: Serine/threonine-protein kinase Nek9 (Homo sapiens) (UniProt Q8TD19); details: Compound concentration 1000.0 nM
[31] = target: Angiopoietin-1 receptor (Homo sapiens) (UniProt Q02763); details: Compound concentration 1000.0 nM

Sequence of cGMP-dependent protein kinase 2 (Homo sapiens) (Q13237 whole entry): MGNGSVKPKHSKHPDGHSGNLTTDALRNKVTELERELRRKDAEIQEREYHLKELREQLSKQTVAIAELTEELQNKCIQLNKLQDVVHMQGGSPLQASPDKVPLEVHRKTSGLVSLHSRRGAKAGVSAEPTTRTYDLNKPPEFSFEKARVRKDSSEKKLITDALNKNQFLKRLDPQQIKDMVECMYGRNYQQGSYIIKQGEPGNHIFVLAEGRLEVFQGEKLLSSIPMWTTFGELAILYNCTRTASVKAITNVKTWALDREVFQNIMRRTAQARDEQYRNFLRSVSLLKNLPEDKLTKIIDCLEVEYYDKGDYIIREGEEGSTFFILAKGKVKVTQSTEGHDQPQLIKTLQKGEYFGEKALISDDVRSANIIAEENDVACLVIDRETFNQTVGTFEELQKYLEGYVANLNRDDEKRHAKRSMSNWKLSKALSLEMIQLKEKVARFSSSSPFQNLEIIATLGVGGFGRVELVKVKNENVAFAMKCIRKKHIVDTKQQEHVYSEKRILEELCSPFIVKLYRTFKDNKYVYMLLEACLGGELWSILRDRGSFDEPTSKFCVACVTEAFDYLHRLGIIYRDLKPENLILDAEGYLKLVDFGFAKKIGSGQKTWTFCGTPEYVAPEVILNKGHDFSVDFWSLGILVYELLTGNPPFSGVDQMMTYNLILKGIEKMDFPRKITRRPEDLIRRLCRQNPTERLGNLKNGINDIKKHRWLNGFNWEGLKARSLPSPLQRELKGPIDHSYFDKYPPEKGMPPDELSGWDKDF
Sequence of Calcium/calmodulin-dependent protein kinase type II subunit gamma (Homo sapiens) (Q13555 whole entry, canonical isoform): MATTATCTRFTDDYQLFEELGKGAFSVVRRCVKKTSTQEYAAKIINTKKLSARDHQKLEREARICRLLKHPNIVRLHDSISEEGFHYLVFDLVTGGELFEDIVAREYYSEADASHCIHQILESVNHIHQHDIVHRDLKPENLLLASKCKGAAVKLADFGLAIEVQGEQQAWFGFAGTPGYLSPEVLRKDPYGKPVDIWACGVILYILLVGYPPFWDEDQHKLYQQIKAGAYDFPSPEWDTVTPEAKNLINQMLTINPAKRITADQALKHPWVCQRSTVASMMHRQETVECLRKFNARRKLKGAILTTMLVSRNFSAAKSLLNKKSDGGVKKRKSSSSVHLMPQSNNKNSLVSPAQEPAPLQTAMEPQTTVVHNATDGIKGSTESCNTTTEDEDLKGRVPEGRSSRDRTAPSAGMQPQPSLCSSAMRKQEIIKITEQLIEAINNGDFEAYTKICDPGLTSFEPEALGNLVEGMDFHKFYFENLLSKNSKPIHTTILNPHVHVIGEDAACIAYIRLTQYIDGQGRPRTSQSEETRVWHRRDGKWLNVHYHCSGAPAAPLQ
Sequence of Serine/threonine-protein kinase ULK3 (Homo sapiens) (Q6PHR2 whole entry): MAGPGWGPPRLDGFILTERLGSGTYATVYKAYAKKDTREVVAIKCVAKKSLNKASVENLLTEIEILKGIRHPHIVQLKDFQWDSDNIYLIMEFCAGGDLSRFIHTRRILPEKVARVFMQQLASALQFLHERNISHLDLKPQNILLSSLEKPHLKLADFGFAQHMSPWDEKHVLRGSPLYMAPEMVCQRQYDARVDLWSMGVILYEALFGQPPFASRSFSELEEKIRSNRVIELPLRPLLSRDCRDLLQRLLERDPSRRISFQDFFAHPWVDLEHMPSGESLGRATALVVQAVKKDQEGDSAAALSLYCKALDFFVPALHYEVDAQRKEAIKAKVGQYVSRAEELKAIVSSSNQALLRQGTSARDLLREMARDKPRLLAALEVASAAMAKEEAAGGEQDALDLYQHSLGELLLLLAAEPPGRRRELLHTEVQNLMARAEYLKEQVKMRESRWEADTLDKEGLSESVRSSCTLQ
Sequence of Serine/threonine-protein kinase Sgk1 (Homo sapiens) (O00141 whole entry): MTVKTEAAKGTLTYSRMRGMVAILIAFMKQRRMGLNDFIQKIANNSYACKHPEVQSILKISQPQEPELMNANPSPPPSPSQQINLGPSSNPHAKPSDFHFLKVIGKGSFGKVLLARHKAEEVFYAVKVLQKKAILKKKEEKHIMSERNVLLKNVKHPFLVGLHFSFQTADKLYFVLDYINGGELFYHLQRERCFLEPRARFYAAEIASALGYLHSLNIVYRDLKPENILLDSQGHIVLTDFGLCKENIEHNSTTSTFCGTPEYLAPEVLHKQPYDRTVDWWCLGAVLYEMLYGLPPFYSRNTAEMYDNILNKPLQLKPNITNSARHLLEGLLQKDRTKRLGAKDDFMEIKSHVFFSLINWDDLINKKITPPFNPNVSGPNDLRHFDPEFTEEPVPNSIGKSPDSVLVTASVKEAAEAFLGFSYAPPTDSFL
Sequence of Ephrin type-B receptor 4 (Homo sapiens) (P54760 whole entry): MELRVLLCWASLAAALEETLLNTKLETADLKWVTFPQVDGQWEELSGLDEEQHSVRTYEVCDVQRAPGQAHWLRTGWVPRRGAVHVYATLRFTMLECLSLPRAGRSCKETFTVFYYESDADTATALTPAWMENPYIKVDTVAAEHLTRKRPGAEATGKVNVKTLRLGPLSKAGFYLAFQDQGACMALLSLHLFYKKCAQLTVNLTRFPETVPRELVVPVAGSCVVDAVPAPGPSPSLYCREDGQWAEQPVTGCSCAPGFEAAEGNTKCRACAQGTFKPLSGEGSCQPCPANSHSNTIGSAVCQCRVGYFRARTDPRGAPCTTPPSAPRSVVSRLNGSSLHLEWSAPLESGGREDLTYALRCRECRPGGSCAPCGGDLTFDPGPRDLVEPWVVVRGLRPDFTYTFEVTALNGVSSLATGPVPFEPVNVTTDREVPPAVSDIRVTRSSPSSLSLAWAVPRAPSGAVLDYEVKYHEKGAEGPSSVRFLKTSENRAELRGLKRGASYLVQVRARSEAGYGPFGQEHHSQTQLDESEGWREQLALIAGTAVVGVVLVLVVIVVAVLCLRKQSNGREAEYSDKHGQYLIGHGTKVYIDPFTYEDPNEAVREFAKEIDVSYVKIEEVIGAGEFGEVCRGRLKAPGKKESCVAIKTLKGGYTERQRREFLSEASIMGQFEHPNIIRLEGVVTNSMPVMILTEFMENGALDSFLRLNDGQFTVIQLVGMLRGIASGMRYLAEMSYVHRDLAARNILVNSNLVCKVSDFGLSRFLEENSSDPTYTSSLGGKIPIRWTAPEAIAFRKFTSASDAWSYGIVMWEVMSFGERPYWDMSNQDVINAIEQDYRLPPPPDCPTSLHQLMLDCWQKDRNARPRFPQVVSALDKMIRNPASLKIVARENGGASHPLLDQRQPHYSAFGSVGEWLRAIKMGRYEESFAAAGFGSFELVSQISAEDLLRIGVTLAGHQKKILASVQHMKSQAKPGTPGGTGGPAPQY
Sequence of eIF-2-alpha kinase GCN2 (Homo sapiens), Q9P2K8 [S808G] (Q9P2K8 whole entry S808G): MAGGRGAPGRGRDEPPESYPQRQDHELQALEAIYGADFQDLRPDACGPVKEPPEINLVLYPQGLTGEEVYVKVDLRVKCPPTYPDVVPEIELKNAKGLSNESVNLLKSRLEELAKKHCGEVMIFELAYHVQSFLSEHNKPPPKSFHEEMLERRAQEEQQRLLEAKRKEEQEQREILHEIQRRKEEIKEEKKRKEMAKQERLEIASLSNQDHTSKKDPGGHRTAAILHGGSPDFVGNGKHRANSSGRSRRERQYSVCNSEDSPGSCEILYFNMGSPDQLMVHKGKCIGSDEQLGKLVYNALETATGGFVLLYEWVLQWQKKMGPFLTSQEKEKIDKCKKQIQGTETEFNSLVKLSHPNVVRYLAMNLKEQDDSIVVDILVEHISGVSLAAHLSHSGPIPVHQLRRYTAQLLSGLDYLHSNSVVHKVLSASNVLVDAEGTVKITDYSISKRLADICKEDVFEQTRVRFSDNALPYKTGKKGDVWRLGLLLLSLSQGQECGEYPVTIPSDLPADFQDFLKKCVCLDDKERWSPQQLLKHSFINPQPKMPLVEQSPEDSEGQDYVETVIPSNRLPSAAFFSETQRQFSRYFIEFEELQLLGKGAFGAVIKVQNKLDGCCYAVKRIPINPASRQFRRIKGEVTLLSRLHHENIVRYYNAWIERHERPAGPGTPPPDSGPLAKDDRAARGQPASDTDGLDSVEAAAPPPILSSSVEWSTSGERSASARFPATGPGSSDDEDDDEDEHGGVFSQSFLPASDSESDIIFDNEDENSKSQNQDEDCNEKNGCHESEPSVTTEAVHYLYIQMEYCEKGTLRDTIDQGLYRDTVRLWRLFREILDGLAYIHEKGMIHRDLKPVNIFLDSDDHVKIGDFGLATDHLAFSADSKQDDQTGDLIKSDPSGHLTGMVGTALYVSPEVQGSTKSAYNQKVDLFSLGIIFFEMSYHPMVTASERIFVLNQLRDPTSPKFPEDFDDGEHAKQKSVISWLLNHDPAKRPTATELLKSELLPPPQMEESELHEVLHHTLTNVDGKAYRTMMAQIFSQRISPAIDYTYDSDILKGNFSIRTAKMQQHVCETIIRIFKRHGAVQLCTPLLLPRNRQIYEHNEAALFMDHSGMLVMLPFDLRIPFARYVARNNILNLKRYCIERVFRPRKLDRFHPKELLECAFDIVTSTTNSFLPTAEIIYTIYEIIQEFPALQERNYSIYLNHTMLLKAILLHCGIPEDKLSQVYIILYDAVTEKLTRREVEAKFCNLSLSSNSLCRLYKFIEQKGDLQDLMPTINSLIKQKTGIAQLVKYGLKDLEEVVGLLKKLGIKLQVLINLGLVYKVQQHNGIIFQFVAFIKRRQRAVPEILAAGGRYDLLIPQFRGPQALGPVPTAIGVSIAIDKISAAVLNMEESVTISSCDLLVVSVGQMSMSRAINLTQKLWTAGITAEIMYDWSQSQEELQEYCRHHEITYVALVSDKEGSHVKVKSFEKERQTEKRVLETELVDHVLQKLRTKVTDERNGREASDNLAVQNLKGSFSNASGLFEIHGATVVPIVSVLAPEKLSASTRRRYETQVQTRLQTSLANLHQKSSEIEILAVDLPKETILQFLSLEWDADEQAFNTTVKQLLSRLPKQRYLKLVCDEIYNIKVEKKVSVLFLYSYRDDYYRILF

Cn1cncc1[C@@](O)(COc1ccc(C#N)cc1-c1ccc(OC(F)(F)F)cc1)c1ccc(C#N)cc1 [A-108]
inactive: residual activity [1] 87% | residual activity [2] 84% | residual activity [3] 69% | residual activity [4] 100% | residual activity [5] 97% | residual activity [6] 100% | residual activity [7] 100% | residual activity [8] 79% | residual activity [9] 100% | residual activity [10] 100% | residual activity [11] 100% | residual activity [12] 100% | residual activity [13] 100% | residual activity [14] 100% | residual activity [15] 86% | inhibition [16] 17.1% | inhibition [17] 6.36% | inhibition [18] 25.8% | residual activity [19] 86% | residual activity [20] 84% | residual activity [21] 100% | residual activity [22] 100% | residual activity [23] 78% | residual activity [24] 81% | residual activity [25] 98% | residual activity [26] 84% | residual activity [27] 97% | residual activity [28] 100% | residual activity [29] 96% | residual activity [30] 100% | residual activity [31] 92%

Cn1cncc1[C@](O)(COc1ccc(C#N)cc1-c1ccc(OC(F)(F)F)cc1)c1ccc(C#N)cc1 [ABT-100]
inactive: residual activity [1] 100% | residual activity [2] 83% | residual activity [3] 77% | residual activity [4] 98% | residual activity [5] 77% | residual activity [6] 100% | residual activity [7] 66% | residual activity [8] 74% | residual activity [9] 100% | residual activity [10] 76% | residual activity [11] 98% | residual activity [12] 86% | residual activity [13] 100% | residual activity [14] 100% | residual activity [15] 73% | inhibition [16] 0.26% | inhibition [17] 2.72% | inhibition [18] -4.07% | residual activity [19] 94% | residual activity [20] 64% | residual activity [21] 76% | residual activity [22] 99% | residual activity [23] 88% | residual activity [24] 100% | residual activity [25] 94% | residual activity [26] 79% | residual activity [27] 100% | residual activity [28] 93% | residual activity [29] 100% | residual activity [30] 72% | residual activity [31] 92%
